Assay results reported in publication PMC6110851, “An Optimized MicroPET Imaging Method for the Distribution and Synergies of Natural Products” (Frontiers in Pharmacology, 2018).

Assay: MicroPET biodistribution of [^18F]-GA in mice
Assay type: in vivo
Settings: for time to peak in organ: after injection
Description: The mice were grouped by weight and housed in cages of the climate control room (25°C), with a photoperiod 12:12-h. During feeding, mice were free to access food and water. Mice were fasted for 24 h before the experiment. The mice were anesthetized with 4% isoflurane while preparing for scanning ([Constantinescu et al., 2013b]; [Cui et al., 2017]). Eighteen healthy male Kunming mice, weighing 20 ± 2 g, were divided into three groups, which were control group, once-administered (OA) group and long-term administration (LA) group. In the OA group, 1 h before the administration of [^18F]-GA, the mice were orally treated with PG polysaccharides. In the LA group, the mice were orally given the PG polysaccharides for 7 days, but not before the administration of [^18F]-GA.
Rice received a tail vein injection (8.67 ± 2.14 MBq/μg) of [^18F]-GA and placed in the scanner bed and mouse-imaging room immediately ([Constantinescu et al., 2013b]; [O’Doherty et al., 2017]). Firstly, 2 h PET scanning was performed using an Inveon-dedicated PET scanner. The average delay between injection and starting of PET scanning was 3.5 min. Rice were maintained stable under 4% isoflurane anesthesia throughout scanning. The PET list-mode data were dynamically classified into 23 3D sinograms of span and three ring difference. After Fourier recombination, the data were reconstructed using a 2D ordered-subset expectation maximization algorithm. Random events were excluded before reconstruction. The response of detector is normalized using a component-based approach. All dynamic images were corrected for radioactive decay automatically. The PET images were reconstructed by a cone beam algorithm into 480 × 480 × 632 image arrays. After the reconstruction, images were spatially transformed to match the PET images ([Constantinescu et al., 2013a],[b]).
The reconstruction of the image was performed using the PMOD software (PMOD Technologies). The 3D volumes of interest (VOIs) were drawn manually of the following organs: brain, heart, liver, lungs, kidneys, cortical bone, and gallbladder. The organs were carefully identified and VOIs were drawn as irregular contours on high-resolution PET images obtained from each mouse ([Constantinescu et al., 2013b]; [Garg et al., 2017]). The size of each VOI was less than the actual size of each organ to minimize the effects of PET on adjacent organ spills. The VOIs drawing was verified by a second operator. The VOIs of cortical bone were generated by first using PET image to depict the entire femur bone ([Constantinescu et al., 2013b]). The VOI was transferred to a dynamic PET image and the mean time-activity curve (TAC) of the decay correction was extracted for each target organ ([Constantinescu et al., 2013b]).

[1] = mice, tail vein injection, Time(s) 60
[2] = mice, tail vein injection, Time(s) 180
[3] = mice, tail vein injection, Time(s) 300
[4] = mice, tail vein injection, Time(s) 420
[5] = mice, tail vein injection, Time(s) 660
[6] = mice, tail vein injection, Time(s) 780
[7] = mice, tail vein injection, Time(s) 900
[8] = mice, tail vein injection, Time(s) 1020
[9] = mice, tail vein injection, Time(s) 1140
[10] = mice, tail vein injection, Time(s) 1350
[11] = mice, tail vein injection, Time(s) 1650
[12] = mice, tail vein injection, Time(s) 1950
[13] = mice, tail vein injection, Time(s) 2250
[14] = mice, tail vein injection, Time(s) 2700
[15] = mice, tail vein injection, Time(s) 3300
[16] = mice, tail vein injection, Time(s) 3900
[17] = mice, tail vein injection, Time(s) 4500
[18] = mice, tail vein injection, Time(s) 5100
[19] = mice, tail vein injection, Time(s) 5700
[20] = mice, tail vein injection, Time(s) 6300
[21] = mice, tail vein injection, Time(s) 6900

- organ of highest uptake (all mice): highest uptake was found in the liver
- time to peak in organ (gallbladder, mice, maintained on the peak): 30 min
- time to peak in organ (heart, lung, and kidney, mice): immediately reached a peak
- time to peak in organ (liver, mice): 7 min
- brain concentrations (mice, MicroPET 3-130 min): consistently low
- route of excretion of radioactivity (mice, radiotracer found in the gallbladder): excreted via the biliary
- Organs (%ID/g) Brain [1]: 1.19 %ID/g
- Organs (%ID/g) Gallbladder [1]: 11.19 %ID/g
- Organs (%ID/g) Heart [1]: 12.13 %ID/g
- Organs (%ID/g) Kidney [1]: 9.67 %ID/g
- Organs (%ID/g) Liver [1]: 13.03 %ID/g
- Organs (%ID/g) Brain [2]: 0.79 %ID/g
- Organs (%ID/g) Gallbladder [2]: 14.59 %ID/g
- Organs (%ID/g) Heart [2]: 6.52 %ID/g
- Organs (%ID/g) Kidney [2]: 8.98 %ID/g
- Organs (%ID/g) Liver [2]: 17.00 %ID/g
- Organs (%ID/g) Brain [3]: 0.73 %ID/g
- Organs (%ID/g) Gallbladder [3]: 19.88 %ID/g
- Organs (%ID/g) Heart [3]: 4.75 %ID/g
- Organs (%ID/g) Kidney [3]: 7.13 %ID/g
- Organs (%ID/g) Liver [3]: 16.13 %ID/g
- Organs (%ID/g) Heart [4]: 4.07 %ID/g
- Organs (%ID/g) Kidney [4]: 6.26 %ID/g
- Organs (%ID/g) Liver [4]: 14.94 %ID/g
- Organs (%ID/g) Brain [5]: 0.58 %ID/g
- Organs (%ID/g) Gallbladder [5]: 26.93 %ID/g
- Organs (%ID/g) Heart [5]: 3.50 %ID/g
- Organs (%ID/g) Kidney [5]: 5.00 %ID/g
- Organs (%ID/g) Liver [5]: 12.33 %ID/g
- Organs (%ID/g) Lung [5]: 2.45 %ID/g
- Organs (%ID/g) Brain [6]: 0.61 %ID/g
- Organs (%ID/g) Gallbladder [6]: 29.01 %ID/g
- Organs (%ID/g) Heart [6]: 3.33 %ID/g
- Organs (%ID/g) Kidney [6]: 4.73 %ID/g
- Organs (%ID/g) Liver [6]: 11.32 %ID/g
- Organs (%ID/g) Brain [7]: 0.54 %ID/g
- Organs (%ID/g) Gallbladder [7]: 30.51 %ID/g
- Organs (%ID/g) Kidney [7]: 4.52 %ID/g
- Organs (%ID/g) Liver [7]: 10.43 %ID/g
- Organs (%ID/g) Brain [8]: 0.56 %ID/g
- Organs (%ID/g) Gallbladder [8]: 33.20 %ID/g
- Organs (%ID/g) Heart [8]: 3.03 %ID/g
- Organs (%ID/g) Kidney [8]: 4.23 %ID/g
- Organs (%ID/g) Liver [8]: 9.66 %ID/g
- Organs (%ID/g) Brain [9]: 0.52 %ID/g
- Organs (%ID/g) Gallbladder [9]: 34.49 %ID/g
- Organs (%ID/g) Heart [9]: 2.92 %ID/g
- Organs (%ID/g) Kidney [9]: 4.04 %ID/g
- Organs (%ID/g) Liver [9]: 9.05 %ID/g
- Organs (%ID/g) Brain [10]: 0.49 %ID/g
- Organs (%ID/g) Gallbladder [10]: 36.96 %ID/g
- Organs (%ID/g) Kidney [10]: 3.71 %ID/g
- Organs (%ID/g) Liver [10]: 8.34 %ID/g
- Organs (%ID/g) Brain [11]: 0.41 %ID/g
- Organs (%ID/g) Gallbladder [11]: 40.92 %ID/g
- Organs (%ID/g) Heart [11]: 2.67 %ID/g
- Organs (%ID/g) Kidney [11]: 3.30 %ID/g
- Organs (%ID/g) Liver [11]: 7.55 %ID/g
- Organs (%ID/g) Brain [12]: 0.42 %ID/g
- Organs (%ID/g) Gallbladder [12]: 42.68 %ID/g
- Organs (%ID/g) Heart [12]: 2.64 %ID/g
- Organs (%ID/g) Liver [12]: 6.96 %ID/g
- Organs (%ID/g) Brain [13]: 0.39 %ID/g
- Organs (%ID/g) Gallbladder [13]: 44.48 %ID/g
- Organs (%ID/g) Heart [13]: 2.82 %ID/g
- Organs (%ID/g) Kidney [13]: 2.79 %ID/g
- Organs (%ID/g) Liver [13]: 6.50 %ID/g
- Organs (%ID/g) Brain [14]: 0.42 %ID/g
- Organs (%ID/g) Gallbladder [14]: 43.79 %ID/g
- Organs (%ID/g) Heart [14]: 2.37 %ID/g
- Organs (%ID/g) Kidney [14]: 2.52 %ID/g
- Organs (%ID/g) Liver [14]: 5.90 %ID/g
- Organs (%ID/g) Brain [15]: 0.37 %ID/g
- Organs (%ID/g) Gallbladder [15]: 45.86 %ID/g
- Organs (%ID/g) Heart [15]: 2.43 %ID/g
- Organs (%ID/g) Kidney [15]: 2.22 %ID/g
- Organs (%ID/g) Liver [15]: 5.27 %ID/g
- Organs (%ID/g) Brain [16]: 0.37 %ID/g
- Organs (%ID/g) Gallbladder [16]: 46.86 %ID/g
- Organs (%ID/g) Heart [16]: 2.63 %ID/g
- Organs (%ID/g) Liver [16]: 4.83 %ID/g
- Organs (%ID/g) Brain [17]: 0.45 %ID/g
- Organs (%ID/g) Gallbladder [17]: 41.98 %ID/g
- Organs (%ID/g) Heart [17]: 2.11 %ID/g
- Organs (%ID/g) Kidney [17]: 1.92 %ID/g
- Organs (%ID/g) Liver [17]: 4.51 %ID/g
- Organs (%ID/g) Brain [18]: 0.38 %ID/g
- Organs (%ID/g) Gallbladder [18]: 39.31 %ID/g
- Organs (%ID/g) Heart [18]: 2.28 %ID/g
- Organs (%ID/g) Kidney [18]: 1.82 %ID/g
- Organs (%ID/g) Liver [18]: 4.27 %ID/g
- Organs (%ID/g) Brain [19]: 0.41 %ID/g
- Organs (%ID/g) Gallbladder [19]: 36.96 %ID/g
- Organs (%ID/g) Heart [19]: 1.96 %ID/g
- Organs (%ID/g) Liver [19]: 3.90 %ID/g
- Organs (%ID/g) Brain [20]: 0.46 %ID/g
- Organs (%ID/g) Gallbladder [20]: 39.06 %ID/g
- Organs (%ID/g) Heart [20]: 2.18 %ID/g
- Organs (%ID/g) Kidney [20]: 1.65 %ID/g
- Organs (%ID/g) Liver [20]: 3.82 %ID/g
- Organs (%ID/g) Brain [21]: 0.48 %ID/g
- Organs (%ID/g) Gallbladder [21]: 41.97 %ID/g
- Organs (%ID/g) Heart [21]: 2.64 %ID/g
- Organs (%ID/g) Kidney [21]: 1.59 %ID/g
- Organs (%ID/g) Liver [21]: 3.64 %ID/g
Compound: CC1(C)[C@@H](O)CC[C@]2(C)[C@H]3C(=O)C=C4[C@@H]5C[C@@](C)(C(=O)NCCCC[18F])CC[C@]5(C)CC[C@@]4(C)[C@]3(C)CC[C@@H]12 [[^18F]-GA, [^18F]-Glycyrrhetinic acid]
